13 molecules from US10577400B2, “Method of manufacturing recombinant lectin protein and recombinant lectin protein manufactured by using the same” (NATIONAL MARINE BIODIVERSITY INSTITUTE OF KOREA, priority 2017, dated 2020) can be followed below.

The test system of assay [1] is Native BPL3. Kind of assay: Inhibition of hemagglutination activity of Native BPL3 by sugars. It counts as cell-based, Bryopsis plumosa.
Assay [2] deals with rD2BPL3. Kind of assay: Inhibition of hemagglutination activity of rD2BPL3 (refolded rBPL3) by sugars. The settings on record: for Minimum inhibitory concentration: inhibition of hemagglutination activity of rD2BPL3; for Concentration at which hemagglutination activity of rBPL3 was inhibited: refolded rBPL3, FIG. 8, running text. Format: cell-based, Bryopsis plumosa. On the procedure: FIG. 8 is a photograph showing that the activity of the refolded rBPL3 is inhibited by N-acetyl D-glucosamine and N-acetyl D-glactosamine. Referring to FIG. 8, experiments on inhibition of hemagglutination activity for 10 kinds of sugars including GlcNAc and GaINAc which inhibited hemagglutination activity of Native BPL3 were conducted.

Assay [3] addresses Fetuin. Kind of assay: cell-based or functional assay.
A short description of assay [4]: Glycan binding specificity, RayBio Glycan Array 100. On the procedure:
Affinity with glycans was measured using RayBio® Glycan Array 100. The rBPL3 and the Native BPL3 were conjugated with biotin and then dialyzed to remove unreacted biotin.
FIG. 9 is a graph for comparing glycan binding specificities of Native BPL3, rD1BPL3, and rD2BPL3.

The mark [5] stands for this setting: biotin-conjugated lectin, FIG. 9.

Converted amounts (≈) assume the structure as drawn. Where two headings read alike, the source gives them in different places. Marks after values point to notes of the source that are not given here.

With `O=C[C@@H](O)[C@@H](O)[C@H](O)[C@H](O)CO` [d-Mannose], the Minimum inhibitory concentration entry in assay [1] was “NI (the absence of inhibition at 500 mM)”; in assay [1] (listed as α-Man), “not inhibited”; in assay [2] it was “NI (the absence of inhibition at 500 mM)”; in assay [2] (listed as α-Man), “not inhibited”.
In turn, “Native BPL3 (Bryopsis plumosa lectin 3 derived from Bryopsis plumosa)” displayed a Minimum inhibitory concentration (inhibition of hemagglutination activity) in assay [3] of 19.5 µg/mL.
With `C[C@@H]1OC(O)[C@@H](O)[C@H](O)[C@@H]1O` (stereo partly drawn) [1-Fucose], the Minimum inhibitory concentration result in assay [1] and in assay [2] was “NI (the absence of inhibition at 500 mM)” in each case.
Turning to `O=C[C@H](O)[C@@H](O)[C@@H](O)[C@H](O)CO` [d-Galactose], the Minimum inhibitory concentration entry in assay [1] and in assay [2] was “NI (the absence of inhibition at 500 mM)” in each case.
With `O=C(CO)[C@@H](O)[C@H](O)[C@H](O)CO` [d-Fructose], the Minimum inhibitory concentration entry in assay [1] and in assay [2] was “NI (the absence of inhibition at 500 mM)” throughout.
Turning to `CC(=O)N[C@H]1C(O)O[C@H](CO)[C@H](O)[C@@H]1O` (stereo partly drawn) [N-acetyl-d-galactosamine], the Minimum inhibitory concentration in assay [1] came out at 62.5 mM (≈ 13.8 mg/mL). In assay [2], the Minimum inhibitory concentration was determined as 31.25 mM (≈ 6.91 mg/mL) and the “Concentration at which hemagglutination activity of rBPL3 was inhibited” value is on record as 62.5 mM.
In the case of `OC[C@H]1O[C@H](O[C@H]2[C@H](O)[C@@H](O)[C@H](O)O[C@@H]2CO)[C@H](O)[C@@H](O)[C@@H]1O` [d-Maltose], the Minimum inhibitory concentration result in assay [1] and in assay [2] was “NI (the absence of inhibition at 500 mM)” each time.
The molecule `CC(=O)N[C@H]1C(O)O[C@H](CO)[C@@H](O)[C@@H]1O` (stereo partly drawn) [N-acetyl-d-glucosamine] yielded a Minimum inhibitory concentration in assay [1] of 125 mM (≈ 27.7 mg/mL). Further, in assay [2], the Minimum inhibitory concentration was 62.5 mM (≈ 13.8 mg/mL) and the “Concentration at which hemagglutination activity of rBPL3 was inhibited” value is 125 mM.
With `OC[C@H]1O[C@@H](O[C@H]2[C@H](O)[C@@H](O)[C@H](O)O[C@@H]2CO)[C@H](O)[C@@H](O)[C@H]1O` [β-Lactose], the Minimum inhibitory concentration entry in assay [1] and in assay [2] was “NI (the absence of inhibition at 500 mM)” each time.
In the case of `O=C[C@H](O)[C@@H](O)[C@H](O)[C@H](O)CO` [d-Glucose], the Minimum inhibitory concentration entry in assay [1] and in assay [2] was “NI (the absence of inhibition at 500 mM)” each time.

B1: Fetuin (protein, UniProt P12763 19-359, looked up)
Alpha-2-HS-glycoprotein: IPLDPVAGYKEPACDDPDTEQAALAAVDYINKHLPRGYKHTLNQIDSVKVWPRRPTGEVYDIEIDTLETTCHVLDPTPLANCSVRQQTQHAVEGDCDIHVLKQDGQFSVLFTKCDSSPDSAEDVRKLCPDCPLLAPLNDSRVVHAVEVALATFNAESNGSYLQLVEISRAQFVPLPVSVSVEFAVAATDCIAKEVVDPTKCNLLAEKQYGFCKGSVIQKALGGEDVRVTCTLFQTQPVIPQPQPDGAEAEAPSAVPDAAGPTPSAAGPPVASVVVGPSVVAVPLPLHRAHYDLRHTFSGVASVESSSGEAFHVGKTPIVGQPSIPGGPVRLCPGRIRYFKI
As for B1, the Minimum inhibitory concentration in assay [1] (concentration in μg/mL) is 19.53^§ μg/mL; in assay [2] (concentration in μg/mL) it was 4.88^§ μg/mL.

B2: Native BPL3: BPL3 (Bryopsis plumosa lectin) derived from bryopsis plumosa, comparative target (protein)
chain: TDVGSVQVRGLGDRSSCPVKPWTTAQTSAREKVVSVKFDIPYSSTPKVALSLSGMDMDTKYNTRINTSVENLTNEGFDLKVGVWCNTYAYMLDVTYVVVPAPYAAG
modifications: bryopsis plumose-derived BPL3 gene
notes: BPL3 (Bryopsis plumosa lectin) derived from bryopsis plumosa, comparative target
B2: in assay [4] (setting [5]), the “Glycan giving a strong signal” value is recorded as “strong signal for a glycan of Gal-β-1,3-GaINAc-α-Sp” and the “Number of glycans reacted with, of 100 glycans” value turned out to be 5. For the same molecule, in assay [4] (glycan array), the “Binding to α-Man-Sp” value is given as “specifically bound” and the “Binding to β-GlcNAc-Sp” value was “does not react”.

B3: rD2BPL3 (recombinant BPL3 lectin obtained by the gene having the repeating structure) (protein, part only; not given: spacer and vector tag, not shown: small tags and cut ends)
chain, part: TDVGSVQVRGLGDRSSCPVKPWTTAQTSAREKVVSVKFDIPYSSTPKVALSLSGMDMDTKYNTRINTSVENLTNEGFDLKVGVWCNTYAYMLDVTYVVVPAPYAAGTDVGSVQVRGLGDRSSCPVKPWTTAQTSAREKVVSVKFDIPYSSTPKVALSLSGMDMDTKYNTRINTSVENLTNEGFDLKVGVWCNTYAYMLDVTYVVVPAPYAAG
B3 showed a Minimum inhibitory concentration (inhibition of hemagglutination activity) in assay [3] of 4.88 µg/mL.
